Drawing on article PMC8041284, “Tunable Methacrylamides for Covalent Ligand Directed Release Chemistry” (Journal of the American Chemical Society, 2021), this text covers inhibition for 64 molecules.

For orientation: inhibition means the change of the read-out against control, counted positive when it falls.

Molecules are shown by their SMILES.

Sequence of BTK (Q06187 402-655 limits assumed): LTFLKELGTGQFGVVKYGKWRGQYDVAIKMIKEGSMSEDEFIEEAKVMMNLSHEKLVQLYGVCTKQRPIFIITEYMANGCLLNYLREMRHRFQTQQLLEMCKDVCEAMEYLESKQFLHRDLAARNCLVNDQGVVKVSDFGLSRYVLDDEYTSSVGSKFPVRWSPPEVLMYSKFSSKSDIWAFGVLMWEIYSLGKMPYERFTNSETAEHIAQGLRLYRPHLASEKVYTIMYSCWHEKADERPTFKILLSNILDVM

One assay has as its target BTK (Homo sapiens, UniProt Q06187). Briefly: biochemical. To be noted: read-out: BTK inhibition (%).
`Cc1cc(C(=O)CN2CCCC2)c(C)n1-c1ccc(F)cc1` [PCM-0215202]: the inhibition at 10 µM stood at 5.4%.

Staying with this assay, now noted: read-out: BTK inhibition (%), 0.75 uM BTK, […] probe 3l, 15 min preincubation.
As for `C[C@]12CC[C@H]3[C@@H](CC=C4CC(O)CC[C@@]43C)[C@@H]1CC[C@@H]2C(O)CC(O)(C(F)(F)F)C(F)(F)F` (stereo partly shown) [PCM-0215756], the inhibition at 10 µM is 11.6%.
For the molecule `CCOc1ccccc1N=Nc1c(C)[nH]n(-c2nc(-c3ccccc3)cs2)c1=O` [PCM-0215207], the inhibition at 10 µM is -8.5%.
On the same count and under the same terms, then `CNCc1ccc(-c2[nH]c3cc(F)cc4c3c2CCNC4=O)cc1` [PCM-0095075], with 18.6%.
Still for that read-out and setting: under `NS(=O)(=O)c1ccc(NC(=O)Nc2ccc(F)cc2)cc1` [PCM-0095531] stands -15.6%; under `O=C1C[C@@H](c2ccc(O)cc2)Oc2cc(O)cc(O)c21` [PCM-0094816], 3.9%; under `CC(C)N(CCNC(=O)CN1CCCC1=O)C(C)C` [PCM-0095202], 1.6%.
The same measure, in the same setting: under `CC(C)=CCC[C@](C)(O[C@@H]1O[C@H](CO[C@@H]2O[C@H](CO)[C@@H](O)[C@H](O)[C@H]2O)[C@@H](O)[C@H](O)[C@H]1O)[C@H]1CC[C@]2(C)[C@@H]1[C@H](O)C[C@@H]1[C@@]3(C)CC[C@H](O[C@@H]4O[C@H](CO)[C@@H](O)[C@H](O)[C@H]4O[C@@H]4O[C@H](CO)[C@@H](O)[C@H](O)[C@H]4O)C(C)(C)[C@@H]3CC[C@]12C` [PCM-0215030] stands -0.7%; under `CC(=O)C1=C(O)C=C2Oc3c(C(C)=O)c(O)c(C)c(O)c3[C@@]2(C)C1=O` [PCM-0094808], 17.1%.
Regarding `C[C@H](CCC(=O)O)[C@H]1CC[C@H]2[C@@H]3C[C@H](O)[C@@H]4C[C@H](O)CC[C@]4(C)[C@H]3CC[C@]12C` [PCM-0214678], the inhibition at 10 µM was found to be 3.9%.
For `CCCc1cc2c(N3CCN(C4=NCC(C)(C)S4)CC3)ncnc2s1` [PCM-0215393], the inhibition at 10 µM was -24.7%.
Still for that read-out and setting: under `Nc1ncnc2c1ncn2[C@@H]1O[C@H](COP(=O)(O)OP(=O)(O)O)[C@@H](O)[C@H]1O` [PCM-0216291] stands 3.1%; under `Fc1ccc(C(c2ccc(F)cc2)N2CCN(C/C=C/c3ccccc3)CC2)cc1` [PCM-0065210], 87.2%; under `CC(=O)OCOC(=O)CN(CC(=O)OCOC(C)=O)c1ccccc1OCCOc1ccccc1N(CC(=O)OCOC(C)=O)CC(=O)OCOC(C)=O` [PCM-0215314], -27.8%.
Still for that read-out and setting: then `CCOC(=O)/C=C/c1ccc(O)c(OC)c1` [PCM-0215040], with -8.3%; and `C=CC(=O)Nc1ccc(CN2C(=O)N(c3cc(OC)cc(OC)c3)Cc3cnc(Nc4ccc(N5CCN(C)CC5)cc4)nc32)cc1` [PCM-0215559], with 88.3%; and `Cc1ccc(Nc2ncc3c(n2)N(C)C(=O)N(c2cc(NC(=O)c4cccc(C(F)(F)F)c4)ccc2C)C3)cn1` [PCM-0215589], with 36.6%.
The same measure, in the same setting: then `CCS(=O)(=O)c1cccc(-c2cc(C(=O)NC3CCN(C)CC3)c(C)c3[nH]c4ncc(C)cc4c23)c1` [PCM-0095437], with 93.1%; and `CNC(=O)c1cc(Oc2ccc(NC(=O)Nc3cc(C(C)(C)C)nn3-c3ccc4ncccc4c3)c(F)c2)ccn1` [PCM-0095514], with 98.6%.
As for `Cc1ccc(Nc2cc(N[C@@H]3CCCC[C@@H]3N)nnc2C(N)=O)nc1C` [PCM-0215730], the inhibition at 10 µM is 79.3%.
Consider `CC(=O)Oc1ccccc1C(=O)Nc1ncc([N+](=O)[O-])s1` [PCM-0090347], for which the inhibition at 10 µM was 17.9%.
On the same count and under the same terms, under `Cc1ccc(NC(=O)c2ccc(CN3CCN(C)CC3)cc2)cc1Nc1nc(-c2cccnc2)cs1` [PCM-0094992] stands -47.6%; under `O=C(NN=Cc1ccc(O)c(O)c1)c1cc2ccccc2cc1O` [PCM-0215235], 32.4%; under `Cc1cn([C@@H]2C[C@@H](O)[C@H](CO)O2)c(=O)[nH]c1=O` [PCM-0095099], -6.2%.
Still for that read-out and setting: then `O=C(c1ccc(F)cc1)N1CCC[C@H](c2nc(-c3ccc(F)cc3)no2)C1` [PCM-0095385], with -13.2%.
On to `CCOC(=O)C1=C(N)Oc2ccc(Br)cc2C1C(C#N)C(=O)OCC` (stereo not shown) [PCM-0214778], for which the inhibition at 10 µM is 15.6%.
With `CCC/C=C1\OC(=O)C2=C1CCC=C2` [PCM-0216295], the inhibition at 10 µM was 14.7%.
On the same count and under the same terms, under `Cc1ccc2nc(NC(=O)CSc3nc4c(c(=O)n3-c3ccccc3)SCC4)sc2c1` [PCM-0215324] stands 10.2%.
Take `C[C@@H]1O[C@@H](O[C@H]2[C@H](O)[C@@H](O)[C@H](OC[C@H]3O[C@@H](OC(=O)[C@]45CCC(C)(C)C[C@H]4C4=CC[C@@H]6[C@@]7(C)CC[C@H](O[C@@H]8OC[C@H](O)[C@H](O)[C@H]8O)[C@@](C)(CO)[C@@H]7CC[C@@]6(C)[C@]4(C)CC5)[C@H](O)[C@@H](O)[C@@H]3O)O[C@@H]2CO)[C@H](O)[C@H](O)[C@H]1O` [PCM-0216340]: the inhibition at 10 µM is -10.2%.
On to `COc1cc(-c2oc3cc(O)cc(O)c3c(=O)c2O[C@@H]2O[C@H](CO[C@@H]3O[C@@H](C)[C@H](O)[C@@H](O)[C@H]3O)[C@@H](O)[C@H](O)[C@H]2O[C@@H]2O[C@@H](C)[C@H](O)[C@@H](O)[C@H]2O)ccc1O` [PCM-0216372], for which the inhibition at 10 µM is 7.7%.
The same measure, in the same setting: then `C[C@]12CC[C@@H]3c4ccc(O)cc4CC[C@H]3[C@@H]1CCC2=O` [PCM-0214644], with -4.8%.
Still for that read-out and setting: under `COc1cc2ncnc(Nc3ccc(O)c(Br)c3)c2cc1OC` [PCM-0095533] stands 33.8%.
The same measure, in the same setting: then `NCCCCCN` [PCM-0216205], with 14.7%; and `Nc1cc(C(Cl)=C(Cl)Cl)c(S(N)(=O)=O)cc1S(N)(=O)=O` [PCM-0086106], with -3.9%.
With `CC(ONC(=O)c1cc(C(F)(F)F)cc(C(F)(F)F)c1)C(=O)Nc1ccc(Cl)cc1` (stereo not shown) [PCM-0215433], the inhibition at 10 µM was determined as 7.7%.
Still for that read-out and setting: then `O=c1[nH]cnc2c1ncn2[C@H]1C[C@H](O)[C@@H](CO)O1` [PCM-0214983], with 0%.
Still for that read-out and setting: under `O=C[C@H](O)[C@@H](O)[C@H](O)CO` [PCM-0214661] stands -12.5%; under `C=C1C[C@@]23CC[C@H]4[C@@](C)(CCC[C@@]4(C)C(=O)O[C@@H]4O[C@H](CO)[C@@H](O)[C@H](O)[C@H]4O)[C@@H]2CC[C@]1(O[C@@H]1O[C@H](CO)[C@@H](O)[C@H](O[C@@H]2O[C@H](CO)[C@@H](O)[C@H](O)[C@H]2O)[C@H]1O[C@@H]1O[C@H](CO)[C@@H](O)[C@H](O)[C@H]1O)C3` [PCM-0215017], 0.8%; under `C[C@@H](CC[C@@]1(O)O[C@H]2C[C@H]3[C@@H]4CC[C@@H]5C[C@@H](O[C@@H]6O[C@H](CO)[C@H](O)[C@H](O)[C@H]6O[C@@H]6O[C@H](CO)[C@@H](O)[C@H](O)[C@H]6O)CC[C@]5(C)[C@H]4CC[C@]3(C)[C@H]2[C@@H]1C)CO[C@@H]1O[C@H](CO)[C@@H](O)[C@H](O)[C@H]1O` [PCM-0216516], -3.9%.
Still for that read-out and setting: then `C[C@H]1C[C@H]2[C@@H]3CCC4=CC(=O)C=C[C@]4(C)[C@@]3(F)[C@@H](O)C[C@]2(C)[C@@]1(O)C(=O)CO` [PCM-0214629], with -6.2%; and `OC[C@@H](O)[C@@H](O)[C@@H](O)[C@@H](O)CO` [PCM-0216285], with -17%; and `COC(=O)CCC(=O)CN` [PCM-0216554], with -7.7%.
Take `COC(=O)C1=CO[C@@H](O[C@@H]2O[C@H](CO)[C@@H](O)[C@H](O)[C@H]2O)[C@@H]2[C@@]3(C)O[C@H]3[C@@H](O)[C@]12O` [PCM-0216309]: the inhibition at 10 µM is -0.8%.
As for `Oc1ccc2ccccc2c1SSc1c(O)ccc2ccccc12` [PCM-0065009], the inhibition at 10 µM is 17.2%.
For the molecule `CC(=O)Nc1nc2c(Oc3cc(-c4ccc(C(F)(F)F)cc4)ncn3)cccc2s1` [PCM-0095587], the inhibition at 10 µM stood at 10.8%.
As for `Nc1ccc(Cl)cc1C(=O)C(F)(F)F` [PCM-0216158], the inhibition at 10 µM was 23.2%.
Still for that read-out and setting: under `Cc1cc2c(C(=O)NC[C@H](C)c3ccccc3)c(O)c(O)cc2c(O)c1-c1c(C)cc2c(C(=O)NC[C@H](C)c3ccccc3)c(O)c(O)cc2c1O` [PCM-0215358] stands 113%; under `C=CC[S@+]([O-])C[C@H](N)C(=O)O` [PCM-0216303], -9.3%.
Same read-out and setting: under `NCCNc1ccc(NCCN)c2c1C(=O)c1ccncc1C2=O` [PCM-0215996] stands 23.2%.
Same read-out and setting: under `CN(C)CC(=O)Nc1ccc2[nH]c(=O)c3ccccc3c2c1` [PCM-0213810] stands -7.7%.
`CC(C)(CO)[C@@H](O)C(=O)NCCC(=O)O` [PCM-0214814]: the inhibition at 10 µM was found to be 7%.
The same measure, in the same setting: under `Cc1ccc2c(=O)c3cccc(CC(=O)O)c3oc2c1C` [PCM-0095095] stands -7.8%; under `C=CCc1cc(OC)c(O)c(C(=O)NCCO)c1` [PCM-0095214], -16.3%.
For the molecule `CCCCCCCC(=O)N[C@H](CN1CCCC1)[C@H](O)c1ccc2c(c1)OCCO2` [PCM-0215629], the inhibition at 10 µM was -9.3%.
Still for that read-out and setting: then `O=C(Nc1cn[nH]c1-c1nc2ccc(CN3CCOCC3)cc2[nH]1)NC1CC1` [PCM-0094942], with 93.8%; and `CCC(CC)CC1(C(=O)Nc2ccccc2SC(=O)C(C)C)CCCCC1` [PCM-0095336], with 6.2%; and `Cc1[nH]c2ccccc2c1C1=C(NCCc2ccc(F)cc2)C(=O)N(C)C1=O` [PCM-0215349], with 51.7%.
On the same count and under the same terms, under `CC1=CCC2C(C1)C2(C)C` (stereo not shown) [PCM-0216215] stands 8.5%; under `COc1cc2ncc(-c3ccccc3)nc2cc1OC` [PCM-0095612], -13.8%.
Same read-out and setting: under `O=c1c2ccccc2oc2ccccc12` [PCM-0091091] stands -21%.
Take `C=C1[C@H](OC(=O)/C=C(\C)CC)C[C@@H](C(C)C)[C@@H]2[C@@H]([C@@H](C)OC(C)=O)C(=O)C[C@@H]12` [PCM-0216448]: the inhibition at 10 µM was -9.3%.
The same measure, in the same setting: then `c1ccc2c(CCNc3ccc(Nc4ccncc4)cc3)c[nH]c2c1` [PCM-0095026], with 26.9%; and `Cn1cnc([N+](=O)[O-])c1Sc1ncnc2nc[nH]c12` [PCM-0064491], with -4.8%.
Consider `C[C@]12CCC3=C4CCC(=O)C=C4CC[C@H]3[C@@H]1CC[C@@]2(O)CC#N` [PCM-0095005], for which the inhibition at 10 µM is -11.7%.
